Paper PMC11595689, “Aeruginosin 525 (AER525) from Cyanobacterium Aphanizomenon Sp. (KUCC C2): A New Serine Proteases Inhibitor” (Marine Drugs, 2024)
Entries after “also recorded” stand apart in the source; their conditions may differ.

Legend:
chymotrypsin = biological target: T1, chymotrypsin (Bos taurus, UniProt P00766); assay: Chymotrypsin inhibition assay; type: biochemical; details: highest concentration 45 µg mL^−1
T1 construct: purchased Sigma Aldrich
Procedure: (§1) The enzyme inhibitory activity of fractions and AER525 was tested against trypsin [55], chymotrypsin [56], thrombin [56], elastase, and carboxypeptidase A [56]. For full details on trypsin, chymotrypsin, thrombin, and elastase inhibition assay refer to the work of Overlingė et al.. In the carboxypeptidase A assay, the final concentration of the enzyme was 1.6 µM, N-(4-methoxy-phenyl-azoformyl)-Phe-OH (GLPBIO Technology LLC; Montclair, CA, USA) at a concentration of 0.2 mg mL^−1 served as a substrate, and the carboxypeptidase inhibitor from potato tuber was used at a concentration range of 2.5–150 µg mL^−1. Mixtures containing the sample (10 µL) or inhibitor (10 µL) were preincubated with the enzyme (10 µL) and buffer (160 µL; 50 mM Tris-HCl at pH 7.5) at 25 °C. After 10 min, the substrate (20 µL) was added, and the reaction mixture was incubated for another 10 min at 25 °C. The absorbance of the solutions was measured at 350 nm with the application of a microplate reader (Varioskan Flash, Thermo Fisher Scientific OY, Vantaa, Finland). All enzymes were from Sigma Aldrich (St. Louis, MO, USA); 1% v/v DMSO was used to dissolve fractions at final concentrations of 45 µg mL^−1, while for pure AER525, it was additionally serially diluted to 45, 4.5, 0.45, and 0.045 µg mL^−1. […]

elastase = assay: Elastase inhibition assay; type: biochemical; details: highest concentration 45 µg mL^−1
Procedure: as §1

thrombin = biological target: T2, thrombin (Homo sapiens, UniProt P00734); assay: Thrombin inhibition assay; type: biochemical
T2 construct: purchased Sigma Aldrich
Procedure: as §1

[1] = ref [10],[11]; cited from earlier work
Description: (§2) In addition to the nutritional properties of Aphanizomenon, assessed mainly based on the analyses of extracts, there are several studies showing that the cyanobacterium produces metabolites of significant biological activities.

[2] = tested on: human cytosolic enzyme which is involved both in tumor progression and phytochemical bioavailability; details: ref [12]; cited from earlier work
Description: as §2

Q: Which “activity against chymotrypsin (in words)” value (chymotrypsin) does the source give for `CC(C)C[C@@H](NC(=O)[C@@H](N)CO)C(=O)N1[C@H](C(=O)N[C@H](C=O)CCCNC(=N)N)C[C@@H]2CC[C@@H](O)C[C@@H]21` [AER525] here?
A: Its value is “no effect”.

Q: What about the “activity against elastase (in words)” value (elastase) of the same compound?
A: The value was “no effect; also recorded: No activity”.

Q: And the “Elastase enzyme inhibition (IC50)” value (elastase; triplicates)?
A: Its value is “- (not active (inhibition below 10%))”.

Q: And the “activity against thrombin (in words)” value (thrombin)?
A: The value was “potent activity; also recorded: strong thrombin-inhibitory activity”.

Q: And the “potency of thrombin inhibition, AER525 compared with dysinosin D (in words)” value (thrombin)?
A: The value was “comparable potency”.

Q: What does the source list for `NCCc1ccccc1` [β-phenylethylamine]?
A: alleviating depression and anxiety symptoms (in words) [1]: showed effectiveness in alleviating depression and anxiety symptoms; inhibition of the human cytosolic enzyme (in words) [2]: acted as inhibitors

Q: What does the source list for phycocyanobilin?
A: alleviating depression and anxiety symptoms (in words) [1]: showed effectiveness in alleviating depression and anxiety symptoms; inhibition of the human cytosolic enzyme (in words) [2]: acted as inhibitors
